How the values were obtained:
[1] = tested on: autophagy in HOS cells (GFP-LC3); assay: High content screening autophagy assay (GFP-LC3 foci); assay type: cell-based, Human; conditions: Homo sapiens, HOS, 6 h, HOS cells with GFP-LC3, autophagy activated by KU-0063794 500 nM with Bafilomycin A1 5 nM, foci area per cell, read-out: Median IC50 (uM) Cellular assay
Method: Human osteosarcoma cells (HOS) stably expressing a Green Fluorescent Protein (GFP) tagged LC3 (GFP-LC3) were used to determine the inhibitory effect on autophagy of proprietary compounds. For that purpose, autophagy was activated by using the mTOR inhibitor KU-0063794 at 500 nM in the presence of Bafilomycin A1 (Sigma-Aldrich) at 5 nM. Shortly, cells were plated overnight in clear bottom 96-well plates in DMEM-High Modified media (Hi-Clone Cat #SH30285.01). At the start of the experiment, the media was removed and replaced with fresh media containing the mTOR inhibitor, Bafilomycin A1 and the vehicle or a test compound as indicated. After 6 hours the media was removed, cells were washed twice with ice-cold phosphate buffered saline (PBS) and fixed with 4% paraformaldehyde for 20 minutes at room temperature. Then the cells were washed twice with ice-cold PBS before adding Hoechst 33342 at 1 μg/ml in PBS for nuclear staining. After incubation overnight at 4° C., cells were washed once with PBS to remove the excess of dye and 100 μl of PBS was added to each well. Images were acquired at 20× magnification, 6 images per well, using the ImageXpress automated microscope (Molecular Devices Inc.) and analyzed with MetaXpress software to identify LC3-GFP foci. Foci area per cell values were used to generate dose response curves and IC50 values were calculated using the non-linear fitting analysis in GraphPad Prism software.

Vps34 enzyme = Vps34 enzyme (Homo sapiens (Human), UniProt Q8NEB9); assay: Vps34 biochemical assay (Adapta kinase assay); conditions: 20 μM ATP and 200 μM PI:PS in substrate mix, 1 h at room temperature, read-out: Median IC50 uM Adapta
Vps34 enzyme, sequence (Q8NEB9 whole entry): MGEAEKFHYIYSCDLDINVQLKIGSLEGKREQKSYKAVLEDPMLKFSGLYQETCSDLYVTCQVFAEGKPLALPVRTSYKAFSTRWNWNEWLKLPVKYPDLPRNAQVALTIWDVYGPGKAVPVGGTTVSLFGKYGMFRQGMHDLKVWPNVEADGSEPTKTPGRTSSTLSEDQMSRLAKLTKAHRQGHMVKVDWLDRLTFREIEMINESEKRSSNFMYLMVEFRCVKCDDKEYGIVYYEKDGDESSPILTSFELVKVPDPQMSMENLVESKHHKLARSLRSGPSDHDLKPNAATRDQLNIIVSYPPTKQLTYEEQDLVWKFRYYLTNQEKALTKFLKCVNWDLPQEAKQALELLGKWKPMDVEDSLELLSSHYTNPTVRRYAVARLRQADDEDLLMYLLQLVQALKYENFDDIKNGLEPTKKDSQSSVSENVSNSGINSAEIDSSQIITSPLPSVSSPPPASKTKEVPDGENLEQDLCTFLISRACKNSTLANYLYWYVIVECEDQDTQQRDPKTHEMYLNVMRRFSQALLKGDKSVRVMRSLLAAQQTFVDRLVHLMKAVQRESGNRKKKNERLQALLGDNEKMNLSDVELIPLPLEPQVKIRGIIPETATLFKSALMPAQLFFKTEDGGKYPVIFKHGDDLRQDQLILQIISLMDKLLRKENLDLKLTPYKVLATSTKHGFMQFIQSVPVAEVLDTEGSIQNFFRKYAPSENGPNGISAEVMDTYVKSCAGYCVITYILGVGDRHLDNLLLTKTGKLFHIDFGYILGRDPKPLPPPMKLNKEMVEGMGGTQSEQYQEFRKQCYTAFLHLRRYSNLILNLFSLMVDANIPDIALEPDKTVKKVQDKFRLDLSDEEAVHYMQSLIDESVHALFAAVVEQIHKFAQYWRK
Method: Dilution series of compounds of the invention were prepared in DMSO at 100 times the final assay concentration (n1=n0/3 in 10 points). The compounds were further diluted to 4 times the assay concentration in assay buffer (Life technologies buffer Q, PV5125, diluted 5 times supplemented with 2 mM DTT and 2 mM MnCl2). 2.5 μl of the diluted compounds were added to a 384 well assay plate followed by 2.5 μl of 16.5 nM Vps34 enzyme (Life technologies, PV5126). Enzyme and compounds were pre-incubated at rt for 15 min. Then 5 μl of substrate mix containing 20 μM ATP (Life technologies, PV3227) and 200 μM PI:PS substrate (Life technologies, PV5122) in assay buffer was added to the wells containing compound and enzyme. Mixing was performed by pipetting several times. The reaction was incubated at room temperature for 1 h. Then 5 μl stop-detection mix, prepared as described in the Adapta kinase assay kit instructions (Life technologies, PV5099) containing Adapta Eu-anti-ADP antibody (2.3 nM), Alexa Fluor 647 ADP tracer (9 nM) and EDTA (30 mM) in TR-FRET buffer, was added to quench the reaction. Mixing was performed by pipetting several times. The assay plate was then incubated at room temperature for 30 min and read with Artemis micro plate reader. Percent inhibition of the compounds as compared to DMSO treated control samples was calculated. By the use of Dotmatics software compound concentration versus percent inhibition was fitted to generate IC50 values.

IC50 [1] [µM]	IC50 (Vps34 enzyme) [µM]	SMILES
0.3	0.006	C[C@@H]1COCCN1c1cc(N2CCOCC2C(F)(F)F)[nH]c(=O)c1 (stereo partly drawn) [Example 32, 4-[(3R)-3-methylmorpholin-4-yl]-6-[3-(trifluoromethyl)morpholin-4-yl]-1H-pyridin-2-one]
1.4	0.01	CC1COCCN1c1cc(N2CCOC[C@H]2C)cc(=O)[nH]1 (single isomer, unassigned) [Example 24_1]
0.3	0.006	COc1cccc(C2CCCN2c2cc(N3CCOC[C@H]3C)cc(=O)[nH]2)c1 (single isomer, unassigned) [Example 17_2]
5	0.05	O=c1cc(N2CCOCC2)cc(N2CCCC2c2ccccc2)[nH]1 (centres unmarked) [Example 1, 4-morpholino-6-(2-phenylpyrrolidin-1-yl)-1H-pyridin-2-one]
5	0.2	CC1COCCN1c1cc(C2CCOCC2)[nH]c(=O)c1 (centres unmarked) [Example 6, 4-(3-methylmorpholin-4-yl)-6-tetrahydropyran-4-yl-1H-pyridin-2-one]

More lines, now with the values behind:

SMILES	IC50 [1] [µM]	IC50 (Vps34 enzyme) [µM]
COc1cccc(C2CCCN2c2cc(N3CCOCC3C)cc(=O)[nH]2)c1 (centres unmarked) [Example 7, 6-[2-(3-methoxyphenyl)pyrrolidin-1-yl]-4-(3-methylmorpholin-4-yl)-1H-pyridin-2-one]	0.5	0.004
COc1cccc(C2CCCCN2c2cc(N3CCOC[C@H]3C)cc(=O)[nH]2)c1 (single isomer, unassigned) [Example 44_1]	0.2	0.001
C[C@@H]1COCCN1c1cc(N2CCCC2c2cccc(Cl)c2)[nH]c(=O)c1 (single isomer, unassigned) [Example 36_1]	0.4	0.01
COc1cccc(C2CCCN2c2cc(N3CCOC[C@H]3C)cc(=O)[nH]2)c1 (mixture of isomers) [Example 17, (R) and (S) 6-[2-(3-methoxyphenyl)pyrrolidin-1-yl]-4-[(3R)-3-methylmorpholin-4-yl]-1H-pyridin-2-one]	0.1	0.01
CC1COCCN1c1cc(C2=CCOCC2)[nH]c(=O)c1 (centres unmarked) [Example 5, 6-(3,6-dihydro-2H-pyran-4-yl)-4-(3-methylmorpholin-4-yl)-1H-pyridin-2-one]	15	0.2

Source: patent US11179399B2, “6-heterocyclyl-4-morpholin-4-ylpyridine-2-one compounds useful for the treatment of cancer and diabetes” (Sprint Bioscience AB, priority 2016, dated 2021)
